# Like-named read-outs stand apart in the source and are kept apart here.
# Columns and labels:
# Type in all cases: cell-based
# [1] = target: T1, HPK1 (Homo sapiens, UniProt Q92918); assay: HPK1 degradation in Jurkat cells (Western blot); conditions: compound 100 nM
# T1 construct: Jurkat cells were resuscitated, and then subjected to adherent culture for 12 h, compounds were added; endogenous in cells; host or cells: Jurkat cells
# [2] = tested on: SLP76 Ser376 phosphorylation; assay: Inhibition of SLP76 Ser376 phosphorylation in Jurkat cells (Western blot); conditions: Homo sapiens, compound 100 nM
# Procedure: (§1) S1: Jurkat cells were resuscitated, and then subjected to adherent culture for 12 h, compounds were added, the compound concentrations were fixed (treatment time was 0 h, 3 h, 6 h, 12 h, 24 h and 72 h) or the treatment time was fixed (compound concentrations were 0 nM, 1 nM, 10 nM, 100 nM and 1000 nM);
# (§2) S2: the culture solution was poured out, the cells were washed with 3 mL of PBS pre-cooled at 4° C., then the washing solution was discarded, an appropriate amount of lysis solution containing PMSF (100×) was added according to the cell amount, the mixture was uniformly mixed, then placed on ice for lysis for 30 min, and centrifuged at 12000 rpm and at 4° C. for 5 min, (a centrifuge was started for pre-cooling in advance), and the centrifuged supernatant was transferred into a new centrifuge tube and prepared for quantification;
# (§3) S3: an BCA quantitative reagent of Pierce™ BCA Protein Assay Kit (23225) was added at 200 uL/well, then 20 uL of BSA with known different concentrations was added to prepare a protein quantitative standard curve and a sample protein to be detected with avoiding generation of bubbles, the mixture was incubated for 30 min in the dark at 37° C., an OD value was measured at 562 nm, then an appropriate amount of SDS-PAGE loading buffer was added to the protein sample, and the reaction mixture was heated for 5 min in a boiling water bath to fully denature the protein, and stored at −20° C. for later use;
# (§4) S4: an SDS-PAGE gel was prepared, wherein the voltage of a concentrated gel was 90 V, and the voltage of a separation gel was 120 V, a membrane was transferred for 1 h at 4° C. and at a voltage of 100 V, after the membrane was transferred, the protein membrane was immediately placed in a prepared 5% BSA solution, and the mixture was slowly shaken on a shaker, and sealed for 1 h at room temperature;
# (§5) S5: the primary antibody was diluted according to an appropriate proportion according to the specifications of HPK1 Antibody (4472S CST), GLK (D1L4G) Rabbit mAb (92427S CST), SLP-76 (D1R1A) Rabbit mAb (70896S CST), Phospho-SLP-76 (Ser376) (D7S1K) XP® Rabbit mAb (92711T CST) and β-actin Mouse Monoclonal antibody (BE0021 easybio), then incubated overnight with slow shaking at 4° C., and washed 3 times with PBST for 10 min/time;
# (§6) S6: Goat Anti-Rabbit IgG (H&L)-HRP Conjugated (BE0101 easybio) or Goat Anti-Mouse IgG (H&L)-HRP Conjugated (BE0102 easybio) was selected according to the primary antibody, and the secondary antibody was diluted according to an appropriate proportion according to the specification of the secondary antibody, then incubated for 1 h at room temperature with slow shaking, and washed 3 times with PBST for 10 min/time; and
# (§7) S7: an ECL luminescence was added, the results were observed by a developing machine, Western results were quantified using Image J software, and the degradation rates (HPK1 and GLK) or inhibition rates (SLP76 Ser376 phosphorylation) were calculated by comparison with a control group to which no compounds were added, (degradation rate/inhibition rate=1−administration group/control group).
# [3] = target: T1, HPK1; assay: HPK1 degradation in Jurkat cells (Western blot); conditions: for Degradation rate (12 h): 12 h (Table 2); for Degradation rate (10 nM) / Degradation rate (100 nM): HPK1, treatment time 12 h; for Degradation rate (10 nM): compound 10 nM; for HPK1 degradation rate at 0.1 µM: Jurkat, treatment time 6 h
# Procedure: as §1, §2, §3, §4, §5, §6, §7
# [4] = target: T2, GLK (Homo sapiens, UniProt Q8IVH8); assay: GLK degradation in Jurkat cells (Western blot); conditions: treatment time 6 h, compound 100 nM
# T2 construct: endogenous in cells; host or cells: Jurkat cells
# T2 sequence (Q8IVH8 1-894): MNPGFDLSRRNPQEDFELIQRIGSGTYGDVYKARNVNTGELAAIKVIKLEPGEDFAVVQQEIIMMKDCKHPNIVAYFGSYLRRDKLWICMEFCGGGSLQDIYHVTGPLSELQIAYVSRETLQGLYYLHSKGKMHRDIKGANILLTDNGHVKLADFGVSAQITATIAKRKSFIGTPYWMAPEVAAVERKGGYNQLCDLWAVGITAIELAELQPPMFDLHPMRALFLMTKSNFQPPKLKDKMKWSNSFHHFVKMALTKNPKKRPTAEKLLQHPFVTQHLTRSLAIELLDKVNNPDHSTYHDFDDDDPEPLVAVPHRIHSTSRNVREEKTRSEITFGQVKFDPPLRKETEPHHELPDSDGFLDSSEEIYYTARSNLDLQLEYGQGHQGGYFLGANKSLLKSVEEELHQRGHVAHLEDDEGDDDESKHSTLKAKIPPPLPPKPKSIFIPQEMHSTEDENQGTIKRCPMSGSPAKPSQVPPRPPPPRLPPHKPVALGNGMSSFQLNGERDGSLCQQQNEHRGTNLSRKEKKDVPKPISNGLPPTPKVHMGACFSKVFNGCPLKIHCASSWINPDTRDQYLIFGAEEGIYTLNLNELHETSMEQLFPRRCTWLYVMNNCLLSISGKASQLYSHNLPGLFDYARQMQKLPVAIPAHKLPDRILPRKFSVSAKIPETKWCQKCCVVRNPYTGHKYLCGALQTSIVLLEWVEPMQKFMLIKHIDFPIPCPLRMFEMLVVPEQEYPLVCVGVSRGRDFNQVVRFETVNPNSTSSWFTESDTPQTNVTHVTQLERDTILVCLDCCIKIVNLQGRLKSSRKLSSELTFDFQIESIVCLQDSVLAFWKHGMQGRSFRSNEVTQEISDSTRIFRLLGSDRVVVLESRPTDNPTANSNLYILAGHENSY
# Procedure: as §1, §2, §3, §4, §5, §6, §7
# [5] = treatment time 6 h, read-out: SLP76 phosphorylation inhibition rate
# T1 sequence (Q92918 whole entry): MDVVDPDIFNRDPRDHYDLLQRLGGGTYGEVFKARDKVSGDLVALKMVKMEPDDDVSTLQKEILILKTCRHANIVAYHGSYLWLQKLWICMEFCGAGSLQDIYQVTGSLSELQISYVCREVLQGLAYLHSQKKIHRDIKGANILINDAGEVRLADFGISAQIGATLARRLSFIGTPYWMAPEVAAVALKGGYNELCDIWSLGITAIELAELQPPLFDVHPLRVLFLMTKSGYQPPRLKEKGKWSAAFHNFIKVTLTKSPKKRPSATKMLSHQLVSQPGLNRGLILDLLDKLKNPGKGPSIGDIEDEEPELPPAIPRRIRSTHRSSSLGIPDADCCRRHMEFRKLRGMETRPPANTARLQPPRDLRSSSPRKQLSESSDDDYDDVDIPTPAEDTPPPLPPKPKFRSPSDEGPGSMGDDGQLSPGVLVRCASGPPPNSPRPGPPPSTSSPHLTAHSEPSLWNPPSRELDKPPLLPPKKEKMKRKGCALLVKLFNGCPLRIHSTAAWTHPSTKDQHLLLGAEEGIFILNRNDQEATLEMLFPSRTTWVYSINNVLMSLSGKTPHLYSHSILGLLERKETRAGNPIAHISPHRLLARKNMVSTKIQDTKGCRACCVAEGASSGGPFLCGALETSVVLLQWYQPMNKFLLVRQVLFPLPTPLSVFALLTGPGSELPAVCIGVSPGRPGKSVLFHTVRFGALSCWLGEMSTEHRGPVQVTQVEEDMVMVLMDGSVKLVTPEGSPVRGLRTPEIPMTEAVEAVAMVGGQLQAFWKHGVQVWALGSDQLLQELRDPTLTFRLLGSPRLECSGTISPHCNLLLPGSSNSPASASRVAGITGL
smiles,measurement,setting,value
CC(C)(O)C#Cc1cccc(COc2cc(-c3cnc(C4CCN(C(=O)CCCCCCCCCOc5cccc6c5C(=O)N(C5CCC(=O)NC5=O)C6=O)CC4)s3)cnc2N)c1 (centres unmarked) [Compound C3],Degradation rate (48 h),[1],11%
same,inhibition at 0.1 µM,"[2]; maximum over different time points, read-out: Maximum inhibition rate of SLP76 Ser376 phosphorylation",81%
same,Degradation rate (3 h),"[3]; HPK1, compound 100 nM, 3 h",54%
same,Degradation rate (6 h),"[3]; HPK1, compound 100 nM, 6 h",52%
same,Degradation rate (12 h),"[3]; HPK1, compound 100 nM",58%
same,Degradation rate (24 h),"[3]; HPK1, compound 100 nM",3%
same,Degradation rate (10 nM),[3],15%
same,Degradation rate (100 nM),[3]; compound 100 nM,75%
same,Dmax at 0.1 µM,"[3]; compound 100 nM, maximum over different time points, read-out: Maximum degradation rate of HPK1",62%
CC(C)(O)C#Cc1cccc(COc2cc(-c3cnc(C4CCN(C(=O)C5CCN(C(=O)CCCCOc6cccc7c6C(=O)N(C6CCC(=O)NC6=O)C7=O)CC5)CC4)s3)cnc2N)c1 (centres unmarked) [Compound C17],inhibition at 0.1 µM,[2]; [5],22%
same,HPK1 degradation rate at 0.1 µM,"[3]; 6 h, compound 100 nM",-7%
same,GLK degradation rate,[4],42%
CC(C)(O)C#Cc1cccc(COc2cc(-c3cnc(C4CCN(C(=O)CCOCCCCCCCCOc5cccc6c5C(=O)N(C5CCC(=O)NC5=O)C6=O)CC4)s3)cnc2N)c1 (centres unmarked) [Compound C11],HPK1 degradation rate at 0.1 µM,"[3]; 6 h, compound 100 nM",30%
same,GLK degradation rate,[4],−36%
CC(C)(O)C#Cc1cccc(COc2cc(-c3cnc(C4CCN(C(=O)CCNC(=O)CCCCOc5cccc6c5C(=O)N(C5CCC(=O)NC5=O)C6=O)CC4)s3)cnc2N)c1 (centres unmarked) [Compound C14],inhibition at 0.1 µM,[2]; [5],26%
same,HPK1 degradation rate at 0.1 µM,"[3]; 6 h, compound 100 nM",58%
same,GLK degradation rate,[4],60%
CC(C)(O)C#Cc1cccc(COc2cc(-c3cnc(C4CCN(C(=O)CCOCCCCCOc5cccc6c5C(=O)N(C5CCC(=O)NC5=O)C6=O)CC4)s3)cnc2N)c1 (centres unmarked) [Compound C8],inhibition at 0.1 µM,[2]; [5],51%
same,HPK1 degradation rate at 0.1 µM,"[3]; 6 h, compound 100 nM",66%
same,GLK degradation rate,[4],34%
CC(C)(O)C#Cc1cccc(COc2cc(-c3cnc(C4CCN(C(=O)CCNC(=O)CCCOc5cccc6c5C(=O)N(C5CCC(=O)NC5=O)C6=O)CC4)s3)cnc2N)c1 (centres unmarked) [Compound C13],inhibition at 0.1 µM,[2]; [5],4%
same,HPK1 degradation rate at 0.1 µM,"[3]; 6 h, compound 100 nM",38%
same,GLK degradation rate,[4],43%
CC(C)(O)C#Cc1cccc(COc2cc(-c3cnc(C4CCN(C(=O)CCOCCOCCOCCOCCOc5cccc6c5C(=O)N(C5CCC(=O)NC5=O)C6=O)CC4)s3)cnc2N)c1 (centres unmarked) [Compound C7],Degradation rate (48 h),[1],−40%
same,Degradation rate (12 h),"[3]; HPK1, compound 100 nM",58%
same,Degradation rate (24 h),"[3]; HPK1, compound 100 nM",86%
same,Degradation rate (72 h),"[3]; HPK1, compound 100 nM, 72 h",−9%
same,Degradation rate (10 nM),[3],72%
same,Degradation rate (100 nM),[3]; compound 100 nM,68%
CC(C)(O)C#Cc1cccc(COc2cc(-c3cnc(C4CCN(C(=O)C5CCN(C(=O)CCCCCOc6cccc7c6C(=O)N(C6CCC(=O)NC6=O)C7=O)CC5)CC4)s3)cnc2N)c1 (centres unmarked) [Compound C18],inhibition at 0.1 µM,[2]; [5],34%
same,HPK1 degradation rate at 0.1 µM,"[3]; 6 h, compound 100 nM",39%
same,GLK degradation rate,[4],71%
CC(C)(O)C#Cc1cccc(COc2cc(-c3cnc(C4CCN(C(=O)CCOCCCCCCOc5cccc6c5C(=O)N(C5CCC(=O)NC5=O)C6=O)CC4)s3)cnc2N)c1 (centres unmarked) [Compound C9],inhibition at 0.1 µM,[2]; [5],61%
same,HPK1 degradation rate at 0.1 µM,"[3]; 6 h, compound 100 nM",46%
same,GLK degradation rate,[4],−34%
CC(C)(O)C#Cc1cccc(COc2cc(-c3cnc(C4CCN(C(=O)C5CCN(C(=O)CCCCCCOc6cccc7c6C(=O)N(C6CCC(=O)NC6=O)C7=O)CC5)CC4)s3)cnc2N)c1 (centres unmarked) [Compound C19],inhibition at 0.1 µM,[2]; [5],3%
CN1C(=O)CCC(N2C(=O)c3cccc(OCCCCCCCC(=O)N4CCC(c5ncc(-c6cnc(N)c(OCc7cccc(C#CC(C)(C)O)c7)c6)s5)CC4)c3C2=O)C1=O (centres unmarked) [Compound C2],Degradation rate (10 nM),[3],39%
same,Degradation rate (100 nM),[3]; compound 100 nM,33%
CC(C)(O)C#Cc1cccc(COc2cc(-c3cnc(C4CCN(C(=O)Cn5cc(COCCOc6cccc7c6C(=O)N(C6CCC(=O)NC6=O)C7=O)nn5)CC4)s3)cnc2N)c1 (centres unmarked) [Compound C20],inhibition at 0.1 µM,[2]; [5],7%
same,HPK1 degradation rate (12 h),"[3]; 12 h (in-cell remark of Table 4), compound 100 nM",41%
same,HPK1 degradation rate at 0.1 µM,"[3]; 6 h, compound 100 nM",-15%
same,GLK degradation rate,[4],15%
CC(C)(O)C#Cc1cccc(COc2cc(-c3cnc(C4CCN(C(=O)CCCCCCCOc5cccc6c5C(=O)N(C5CCC(=O)NC5=O)C6=O)CC4)s3)cnc2N)c1 (centres unmarked) [Compound C1],Degradation rate (10 nM),[3],47%
same,Degradation rate (100 nM),[3]; compound 100 nM,68%
CC(C)(O)C#Cc1cccc(COc2cc(-c3cnc(C4CCN(C(=O)CCNC(=O)CCCCCOc5cccc6c5C(=O)N(C5CCC(=O)NC5=O)C6=O)CC4)s3)cnc2N)c1 (centres unmarked) [Compound C15],inhibition at 0.1 µM,[2]; [5],-7%
same,HPK1 degradation rate at 0.1 µM,"[3]; 6 h, compound 100 nM",-27%
same,GLK degradation rate,[4],38%
CC(C)(O)C#Cc1cccc(COc2cc(-c3cnc(C4CCN(C(=O)CCNC(=O)CCCCCCOc5cccc6c5C(=O)N(C5CCC(=O)NC5=O)C6=O)CC4)s3)cnc2N)c1 (centres unmarked) [Compound C16],inhibition at 0.1 µM,[2]; [5],24%
same,HPK1 degradation rate at 0.1 µM,"[3]; 6 h, compound 100 nM",49%
same,GLK degradation rate,[4],74%

# Reference: patent US20220331435A1, “PROTAC SMALL MOLECULE COMPOUND AND USE THEREOF” (ZHUHAI YUFAN BIOTECHNOLOGIES CO., LTD, priority 2019, published 2022)
